Assay results taken from patent publication US11077052B1, “Selected multi-phase treatment for coronavirus respiratory infections” (priority 2020, dated 2021).

Legend:
Format in all cases: in vivo, human
SARS-CoV-2 [1] = assay: Nasal irrigation with the Example 1 composition in people during the COVID-19 pandemic, judged by symptoms; details: added to the Example 1 composition
SARS-CoV-2 [2] = assay: Inhalation of the smelling salt by patients during the COVID-19 pandemic; details: liquid CBD added
Protocol: In another formula, in addition to the herbal infused alcohols and concentrated herbal extracts, liquid CBD was also added. […] Apparently, CBD has synergistic effect with the probiotic produced volatile therapeutic compounds. Towards the end of preparation, the multiple strain probiotics along with their bio-active peptides and volatile therapeutic growth end products were add to the formula. The above prepared formulas were placed in a plastic or glass container with a tight closure or in a cartridge with screw type closure. Prior to inhalation, the cap is removed and, using one nostril at a time, it is inhaled deeply to reach the bottom of each and every alveoli of the lung. Conversely, the composition can also be applied using a standard nebulizer with proper liquefaction of the ingredients using a suitable solvent such as water.
The preparation was tried on patients of all age groups and genders ranging from 5 years to 75 years. They were asked to inhale once in the morning and once in the evening if they are at home or office. If they have to go to public places or a crowded place, they were asked to inhale before and after visiting the place. […]
In addition to the ingredients listed in Table 3, further testing evaluated the addition of a minimal amount of ammonium carbonate. In another composition, sodium hypochlorite has been replaced by a minimal quantity of liquid chloroform. […]

SARS-CoV-2 [3] = assay: Oral probiotics liposome in test subjects and COVID-19 patients; details: acute cases of COVID-19
Excerpt: Recommended daily dosages for the above prepared liquid antioxidant liposome are one dose of 1 ounce or two doses of one-half ounce each. This preparation was given to several test subjects of all ages who were monitored for coronavirus infection over a period of 5.5 months during the coronavirus pandemic period (February through middle of August 2020). […] In addition, the above preparation was given to a patient who had been infected with COVID-19. This patient recovered quickly, within one to two weeks.
The liposome also was evaluated with variations of ingredients to identify which appeared to provide the better effectiveness. The standard for comparison had the liposome prepared with, herbal extracts, CBD, ascorbic acid, sodium bicarbonate, and sodium ascorbate. However, the probiotics were not included. A first test version had the liposome prepared with ascorbic acid and herbal extracts only, without sodium ascorbate, sodium bicarbonate, CBD, and probiotics. A second test version had the liposome prepared with concentrated herbal extracts of clove, turmeric, and basil in combination with ascorbic acid and sodium ascorbate along with multiple probiotics strain, but without inclusion of their all other immunomodulins and growth end products. […]

C=C(C)[C@@H]1CCC(C)=C[C@H]1c1c(O)cc(CCCCC)cc1O [CBD, Cannabidiol]
effect of inclusion in the nasal irrigation formulation (SARS-CoV-2 [1]): significantly improved the nasal clearance
effect of addition on efficacy of the inhaling smelling salt (SARS-CoV-2 [2]): significantly improved the efficacy
effect of CBD in the liposome on recovery (SARS-CoV-2 [3]): significantly improved the recovery
